{"source": "paper PMC9271885", "about": "(eBioMedicine, 2022)", "key": {"SARS-CoV-2 [1]": {"system": "SARS-CoV-2", "assay": "Lung histopathological changes in infected hamsters (cumulative score, grade of severity)", "type": "in vivo, Syrian hamsters", "experimental": "The anatomo-histological study was implemented as previously described.[24]^,[26] Briefly, lungs were collected after intratracheal instillation of 4% (w/v) formaldehyde solution, and then fixed 72h at room temperature with a 4% (w/v) formaldehyde solution before being embedded in paraffin. Tissue sections of 3.5µm were stained with hematoxylin-eosin (H&E) and blindly analyzed by a certified veterinary pathologist. Microscopic examination was done using a Nikon Eclipse E400 microscope. Different anatomic compartments were examined (1) for bronchial and alveolar walls, a score of 0 to 4 was assigned based on severity of inflammation; (2) regarding alveoli, a score of 0 to 2 was assigned based on presence and severity of hemorrhagic necrosis; (3) regarding vessel changes (leucocytic accumulation in vascular wall or in endothelial compartment), absence or presence was scored 0 or 1 respectively. A cumulative score was then calculated and assigned to a grade of severity (see Supplementary Table 4).\nGroups of 4 hamsters, intranasally infected with 10^4 TCID50 of SARS-CoV-2, were orally treated at a dose of 500mg/kg/day BID for 4 days (0, 1, 2 and 3 dpi) (Figure 4a). Untreated hamsters (group of 4 animals) received the suspension vehicle BID. Animals were sacrificed at 5 dpi and a cumulative score from 0 to 10 (taking into account severity of inflammation, alveolar hemorrhagic necrosis and vessel lesions) was calculated and then assigned to a grade of severity (0=normal; 1=mild; 2=moderate; 3=marked and 4=severe; details in Supplementary Data 4)."}, "SARS-CoV-2 [2]": {"system": "SARS-CoV-2", "settings": "Vero E6 cells at 48 h post-infection; read-out: 50% effective concentration (EC50); cited from earlier work"}, "SARS-CoV-2 [3]": {"system": "SARS-CoV-2", "assay": "Hamster model of SARS-CoV-2 infection, intranasal NTZ treatment (lung, plasma, nasal turbinates)", "type": "in vivo, Syrian hamsters", "parameters": "Lung Infectious titers / Lung Viral RNA yields / Plasmatic viral RNA yields / Nasal Turbinates Infectious titers / Nasal Turbinates Viral RNA yields: unit not given here"}, "[4]": {"settings": "nitazoxanide 500mg/kg/day per os BID, day of sacrifice 5, individual animals"}, "[5]": {"settings": "NTZ emulsion 2.8mg/kg/day TID intranasal, 3 dpi, first experiment"}, "[6]": {"settings": "Nitazoxanide IN 2.8mg/kg/day TID, inoculum 104 TCID50, sacrifice day 3, Figure 5, individual animals"}, "[7]": {"settings": "Nitazoxanide IN 2.8mg/kg/day TID, inoculum 104 TCID50, sacrifice day 3, Figure SF 2, individual animals"}}, "note": "Where “and” joins values, the source holds several entries; their conditions need not be identical. Equal entries are not always repeated."}
{"smiles": "CC(=O)Oc1ccccc1C(=O)Nc1ncc([N+](=O)[O-])s1", "note": "[NTZ, Nitazoxanide]", "values": [{"measurement": "histopathological cumulative scores in lungs vs untreated", "setting": "SARS-CoV-2 [1]; NTZ 500mg/kg/day BID oral for 4 days, sacrificed at 5 dpi", "result": "no significant difference"}, {"measurement": "Histologic scores Bronchitis", "setting": "SARS-CoV-2 [1]; [4]", "result": "4 and 3"}, {"measurement": "Histologic scores Endothelitis / Vasculitis", "setting": "SARS-CoV-2 [1]; [4]", "result": 1}, {"measurement": "Histologic scores Hemorrhagic necrosis", "setting": "SARS-CoV-2 [1]; [4]", "result": "0 and 1"}, {"measurement": "Histologic scores Interstitial pneumonia", "setting": "SARS-CoV-2 [1]; [4]", "result": "4 and 3"}, {"measurement": "Histologic scores Total score", "setting": "SARS-CoV-2 [1]; [4]", "result": "9 and 10 and 8 and 7"}, {"measurement": "Histologic scores Grade", "setting": "SARS-CoV-2 [1]; nitazoxanide 500mg/kg/day per os BID, day of sacrifice 5, individual animals, grade printed as number", "result": "4 and 3"}, {"measurement": "EC50", "setting": "SARS-CoV-2 [2]", "result": 2.12, "unit": "µM"}, {"measurement": "viral replication in clarified lung homogenates, plasma or nasal turbinates vs untreated", "setting": "SARS-CoV-2 [3]; NTZ 2.8mg/kg/day TID intranasal, repeated independent experiment", "result": "no significant differences"}, {"measurement": "infectious titers in clarified lung homogenates vs untreated", "setting": "SARS-CoV-2 [3]; [5]", "result": "significant increase"}, {"measurement": "infectious titers in nasal turbinates vs untreated", "setting": "SARS-CoV-2 [3]; [5]", "result": "no significant differences"}, {"measurement": "viral RNA load in nasal turbinates vs untreated", "setting": "SARS-CoV-2 [3]; [5]", "result": "significant reduction"}, {"measurement": "viral RNA yields in clarified lung homogenates vs untreated", "setting": "SARS-CoV-2 [3]; [5]", "result": "No significant differences"}, {"measurement": "viral RNA yields in plasma vs untreated", "setting": "SARS-CoV-2 [3]; [5]", "result": "No significant differences"}, {"measurement": "Lung Infectious titers", "setting": "SARS-CoV-2 [3]; [6]", "result": "7.738 and 7.565 and 7.260 and 7.126 and 7.436 and 7.154"}, {"measurement": "Lung Viral RNA yields", "setting": "SARS-CoV-2 [3]; [6]", "result": "8.897 and 8.809 and 8.599"}, {"measurement": "Nasal Turbinates Infectious titers", "setting": "SARS-CoV-2 [3]; [6]", "result": "2.483 and 2.551 and 3.472 and 4.082 and 3.115 and 4.229"}, {"measurement": "Nasal Turbinates Viral RNA yields", "setting": "SARS-CoV-2 [3]; [6]", "result": "4.363 and 4.565 and 5.134 and 5.523 and 5.262 and 5.603"}, {"measurement": "Plasmatic viral RNA yields", "setting": "SARS-CoV-2 [3]; [6]", "result": "3.551 and 4.595 and 4.938 and 4.386 and 5.492 and 4.672"}, {"measurement": "Lung Infectious titers", "setting": "SARS-CoV-2 [3]; [7]", "result": "6.420 and 6.814 and 6.658 and 6.401 and 6.100 and 6.859"}, {"measurement": "Lung Viral RNA yields", "setting": "SARS-CoV-2 [3]; [7]", "result": "7.102 and 7.087"}, {"measurement": "Nasal Turbinates Infectious titers", "setting": "SARS-CoV-2 [3]; [7]", "result": "3.220 and 2.494 and 2.987 and 4.228 and 2.922 and 3.399"}, {"measurement": "Nasal Turbinates Viral RNA yields", "setting": "SARS-CoV-2 [3]; [7]", "result": "5.240 and 5.486 and 5.403 and 6.486 and 5.764 and 5.350"}]}
